“Also recorded” adds a separate entry of the source.
Columns and labels:
AR [1] = molecular target: T1, AR (Homo sapiens, UniProt P10275, T878A); assay: Western blotting cellular thermal shift assay for AR in C4–2 cells; type: cell-based; conditions: 1 h at 37 °C prior to heat shock at 46 °C, hits and enzalutamide 20 μM, DHT 10 nM
T1 construct: DHT-induced full length AR directed TA; endogenous in cells; host or cells: C4–2 castration resistant prostate cancer cells
T1 sequence (P10275 1-920 T878A): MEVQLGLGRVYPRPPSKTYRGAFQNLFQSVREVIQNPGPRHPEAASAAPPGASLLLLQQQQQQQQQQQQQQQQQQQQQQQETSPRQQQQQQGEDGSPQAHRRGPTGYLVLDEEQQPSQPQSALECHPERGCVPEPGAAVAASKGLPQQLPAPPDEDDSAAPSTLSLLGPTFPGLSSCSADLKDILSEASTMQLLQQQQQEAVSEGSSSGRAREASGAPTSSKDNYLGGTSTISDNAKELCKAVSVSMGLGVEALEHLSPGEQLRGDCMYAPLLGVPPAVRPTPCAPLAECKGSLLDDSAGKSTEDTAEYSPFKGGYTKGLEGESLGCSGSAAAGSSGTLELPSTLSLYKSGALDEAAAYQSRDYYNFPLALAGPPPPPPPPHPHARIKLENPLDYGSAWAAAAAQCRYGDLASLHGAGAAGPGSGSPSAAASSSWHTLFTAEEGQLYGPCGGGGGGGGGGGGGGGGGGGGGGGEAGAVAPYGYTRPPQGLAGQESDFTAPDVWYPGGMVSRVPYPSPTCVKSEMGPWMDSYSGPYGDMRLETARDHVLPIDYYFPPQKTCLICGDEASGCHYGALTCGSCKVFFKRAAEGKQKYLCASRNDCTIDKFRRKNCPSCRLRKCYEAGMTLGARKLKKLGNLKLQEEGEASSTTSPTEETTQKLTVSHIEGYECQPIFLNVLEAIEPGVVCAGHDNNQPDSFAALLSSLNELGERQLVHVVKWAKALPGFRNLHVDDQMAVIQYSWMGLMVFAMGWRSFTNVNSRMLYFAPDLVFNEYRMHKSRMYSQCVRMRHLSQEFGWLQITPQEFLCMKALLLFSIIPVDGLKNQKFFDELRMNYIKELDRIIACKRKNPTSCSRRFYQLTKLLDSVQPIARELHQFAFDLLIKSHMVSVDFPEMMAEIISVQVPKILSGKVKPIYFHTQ
Method: C4–2 cells were harvested by trypsinization, washed 1x by centrifugation at 270 × g for 5 min and resuspension in PBS, counted, centrifugated at 270 × g for 5 min and resuspended at 7 × 10 [6] cells per mL in Opti-MEM medium (Gibco, Gaithersburg, MD). 50 μL of C4–2 cell suspension (3.5 × 10 [5] cells) were then transferred to PCR tubes that were placed in a T-100 thermocycler (BioRad, Hercules, CA) and a 2 °C interval temperature step gradient from 37 °C to 53 °C was applied. Cells were maintained at each step of the temperature gradient for 5 min and then tubes were withdrawn and placed on ice. 50 μL of cell lysis buffer, 500 mM NaCl, 1% NP-40, 1x protease inhibitor cocktail in PBS were added to the heat shocked cell suspensions in PCR tubes and placed on ice for an additional 30 min. […] 45 μL of cell lysis supernatants were mixed with 15 μL of 5x SDS-PAGE sample buffer and placed in a heat block at 100 °C for 5 min. The protein constituents of heat shocked C4–2 cell lysis supernatants were separated by SDS-PAGE on 8% separating gels, transferred to nitrocellulose membranes that were blocked for 1 h at room temperature in 5% non-fat milk in TBST, and then probed overnight at 4 °C with a 1:1000 dilution of either rabbit anti-AR (Cell Signaling, Danvers, MA) or rabbit anti-TIF2 (Bethyl Laboratories, Waltham, MA) primary antibodies in TBST containing 5% non-fat milk. Membranes were then washed 3x in TBST buffer for 10 min, then incubated with a 1:10,000 dilution of the goat anti-rabbit IgG HRP conjugated secondary antibody (Invitrogen, Carlsbad,CA) in TBST containing 5% non-fat milk for 1 h at room temperature. Western blots were then washed 3x in TBST buffer and developed with Pierce ECL western blotting substrate. Images of ECL western blots were acquired on an iBright 1500 imaging system and quantified using the iBright image analysis software.

AR [2] = molecular target: T1, AR; assay: AlphaScreen cellular thermal shift assay (CETSA) for AR in C4–2 cells; type: cell-based; conditions: for Effect on AR thermal stability, AlphaScreen CETSA: 1 h at 37 °C prior to heat shock at 46 °C, hits and enzalutamide 20 μM, DHT 10 nM; for Effect on maximum efficacy of DHT-enhanced AR thermal stabilization / Right shift of the DHT EC50 for AR thermal stabilization: 20 or 50 μM compound pre-treatment
Method: Mouse anti-hAR (BD Biosciences, San Jose, CA) and rabbit anti-hAR (MilliporeSigma, Burlington, MA) were diluted 1:330 and 1:1000 fold respectively in PBS containing 0.5 mg/mL BSA and 4 μL of the combined diluted AR antibody pair were added to 4 μL of the cell lysate supernatant in a 384-well plate and incubated in the dark for 30 min at room temperature. To each well of the 384-well plate 4 μL of a combined solution of anti-mouse IgG Alpha Donor and anti-rabbit IgG (Fc specific) AlphaLISA Acceptor beads suspended in 1x lysis buffer was added to yield a final donor and acceptor bead concentrations of 40 μg/mL and 10 μg/mL respectively.

PSA = assay: Dot blot of PSA secretion by C4–2 cells; type: cell-based, human; conditions: 10 nM DHT 24 h; 20 μM compound 3 h pre-exposure
Method: To determine PSA secretion levels, C4–2 cells were seeded at 1.4 × 10 [5] cells/well in 12-well plates and treated as described above for PSA cell expression experiments. […] 500 μL of conditioned media supernatant was added to the wells of 96-well to Bio-blot apparatus (BioRad, Hercules, CA) containing a nitrocellulose membrane and was allowed to pass through and attach to the membrane under gravity for 3–4 h at room temperature. The membrane was washed 1x with 500 μL TBS under vacuum, blocked with 1% BSA in TBST for 1 h, and then incubated overnight at 4 °C with the primary rabbit anti-hPSA antibody (Cell Signaling, Danvers, MA) diluted 1:1000 in TBST plus 1% BSA. Dot blots were washed 3x in 10 mL of TBST for 10 min, then incubated for 1 h with secondary goat anti-rabbit-IgG HRP conjugated antibody (Invitrogen, Carlsbad, CA) diluted 1:10,000 in TBST plus 1% Bovine Serum Albumin (BSA), washed 3x with 10 mL of TBST for 10 min, and then developed with Pierce ECL western blotting substrate. Images of ECL dot blots were acquired on an iBright 1500 imaging system and quantified by iBright image analysis software.

HEK 293 cells = assay: M2H viability counter screen; type: cell-based; conditions: cytotoxicity counter screen; read-out: M2H viability CS GI50

| Right shift of the DHT EC50 for AR thermal stabilization (AR [2]) [fold] | Structure (SMILES) | Effect on AR thermal stability, western blot CETSA (AR [1]) | Effect on AR thermal stability, AlphaScreen CETSA (AR [2]) | C4-2 cell supernatants PSA Dot Blot, relative to DMSO (100%) (PSA) [%] | GI50 (HEK 293 cells) [µM] | Effect on maximum efficacy of DHT-enhanced AR thermal stabilization (AR [2]) |
| --- | --- | --- | --- | --- | --- | --- |
| – | Cc1ccccc1-c1cc(O)c2c(c1)CN(c1nc(C(N)=O)cs1)CCO2 [S1–1] | did not stabilize AR, but blocked DHT-enhanced AR stabilization; also recorded: only partially blocked DHT-enhanced AR stabilization | did not stabilize AR in the AlphaScreen assay but blocked DHT-enhanced AR thermal stabilization | 57.7 | – | – |
| – | Cc1ccccc1-c1cc(O)c2c(c1)CN(c1nccs1)CCO2 [S1–3] | – | – | – | > 100 | – |
| > 10 | Cc1nsc(NC(=O)N2CCC(Sc3ccccc3C)CC2)n1 [S2–6] | did not stabilize AR, but blocked DHT-enhanced AR stabilization; also recorded: blocked DHT-enhanced AR thermal stabilization below DMSO baseline levels | did not stabilize AR in the AlphaScreen assay but blocked DHT-enhanced AR thermal stabilization | 12.8 | – | reduced the maximum efficacy of DHT-enhanced AR thermal stabilization |
| ≥ 10 | Cc1c(-c2ccccc2F)[nH]c2ccc(CNC(=O)CCc3cn[nH]c3)cc12 [S3–11] | did not stabilize AR, but blocked DHT-enhanced AR stabilization; also recorded: only partially blocked DHT-enhanced AR stabilization | did not stabilize AR in the AlphaScreen assay but blocked DHT-enhanced AR thermal stabilization | 25.5 | – | at 50 μM reduced the maximum efficacy of DHT |
